The source made the active and inactive calls. The calls are words filed in the database; no cut-off is given here.
Experiments:
P2X purinoceptor 7 [1] = target: T1, P2X purinoceptor 7 (Homo sapiens, UniProt Q99572); experiment: Antagonist activity at P2X7 receptor in human THP1 cells assessed as inhibition of BzATP-induced YO-PRO-1 Iodide uptake measured every 30 secs for 1 hr by fluorescence assay; assay type: cell-based
T1 sequence (Q99572 whole entry): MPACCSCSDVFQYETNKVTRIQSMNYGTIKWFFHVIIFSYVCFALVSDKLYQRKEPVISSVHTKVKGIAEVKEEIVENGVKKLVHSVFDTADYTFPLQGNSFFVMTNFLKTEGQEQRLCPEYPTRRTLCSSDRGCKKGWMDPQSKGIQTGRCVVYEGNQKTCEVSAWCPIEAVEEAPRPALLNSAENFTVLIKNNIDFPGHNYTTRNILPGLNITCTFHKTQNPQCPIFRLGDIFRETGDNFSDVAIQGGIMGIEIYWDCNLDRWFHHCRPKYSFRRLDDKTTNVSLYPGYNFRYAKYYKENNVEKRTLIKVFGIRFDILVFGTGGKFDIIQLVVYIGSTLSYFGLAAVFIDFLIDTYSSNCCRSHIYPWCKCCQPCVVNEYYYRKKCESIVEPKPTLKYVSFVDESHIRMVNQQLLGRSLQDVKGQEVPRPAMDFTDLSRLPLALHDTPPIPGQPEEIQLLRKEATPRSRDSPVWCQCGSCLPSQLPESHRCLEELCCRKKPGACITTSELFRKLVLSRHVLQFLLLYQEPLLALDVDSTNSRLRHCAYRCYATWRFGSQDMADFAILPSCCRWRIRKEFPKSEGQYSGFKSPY

P2X purinoceptor 7 [2] = target: T1, P2X purinoceptor 7; experiment: Antagonist activity at P2X7 receptor in LPS-stimulated human THP1 cells assessed as inhibition of LPS/BzATP-induced IL-1beta release preincubated for 30 mins followed by BzATP addition measured after 30 mins by ELISA
[3] = target: T2, P2X purinoceptor 7 (Homo sapiens) (UniProt Q99572); experiment: Ratio of IC50 for P2X7 receptor in human THP1 cells assessed as inhibition of BzATP-induced YO-PRO-1 Iodide uptake to IC50 for P2X7 receptor in LPS-stimulated human THP1 cells assessed as inhibition of LPS/BzATP-induced IL-1beta release; assay type: cell-based
T2 sequence (whole entry): T1 sequence (Q99572 whole entry)

P2X purinoceptor 7 [4] = target: T3, P2X purinoceptor 7 (Rattus norvegicus, UniProt Q64663); experiment: Antagonist activity at rat P2X7 receptor expressed in 1321N1 cells assessed as inhibition of agonist-induced calcium flux pretreated for 3 mins followed by BzATP addition after 3 mins measured every 1 sec for 60 secs and at 5 secs interval throughout testing by Flou-4-AM dye based FLIPR assay; assay type: cell-based
T3 sequence (Q64663 whole entry): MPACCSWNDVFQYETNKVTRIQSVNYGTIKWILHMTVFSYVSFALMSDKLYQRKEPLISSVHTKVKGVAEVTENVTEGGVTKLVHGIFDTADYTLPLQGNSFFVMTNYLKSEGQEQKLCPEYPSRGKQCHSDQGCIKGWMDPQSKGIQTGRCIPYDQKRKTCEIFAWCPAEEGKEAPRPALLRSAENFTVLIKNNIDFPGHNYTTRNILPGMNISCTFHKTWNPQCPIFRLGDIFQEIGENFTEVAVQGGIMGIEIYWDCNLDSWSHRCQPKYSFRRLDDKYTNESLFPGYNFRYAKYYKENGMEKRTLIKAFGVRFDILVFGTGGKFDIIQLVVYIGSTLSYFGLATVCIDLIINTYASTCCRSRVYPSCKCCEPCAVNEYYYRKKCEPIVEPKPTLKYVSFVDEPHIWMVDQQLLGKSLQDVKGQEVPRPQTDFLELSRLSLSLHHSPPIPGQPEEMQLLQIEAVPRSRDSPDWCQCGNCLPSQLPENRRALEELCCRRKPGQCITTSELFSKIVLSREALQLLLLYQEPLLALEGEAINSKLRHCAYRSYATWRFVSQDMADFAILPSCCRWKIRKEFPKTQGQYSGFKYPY

Mus musculus [5] = experiment: Toxicity in Balb-C mouse assessed as behavior changes at 0.1 to 1 mg/kg, ip measured after 48 hrs; assay type: organism-based; settings: in vivo
Mus musculus [6] = experiment: Anti-depressant like activity in wild-type Balb-C mouse assessed as reduction in duration of immobility at 1 mg/kg, ip administered 15 to 30 mins prior to the testing measured on day 3 post dose by force swim test; assay type: functional, organism-based
[7] = Plasma concentration in Balb-C mouse at 2 mg/kg, iv administered as bolus dose measured after 5.8 mins by LC-MS analysis; assay type: ADME, organism-based
[8] = Plasma concentration in Balb-C mouse at 2 mg/kg, iv administered as bolus dose measured after 6 mins by LC-MS analysis; assay type: ADME, organism-based
[9] = Plasma concentration in Balb-C mouse at 2 mg/kg, iv administered as bolus dose measured after 2.5 mins by LC-MS analysis; assay type: ADME, organism-based
[10] = Plasma concentration in Balb-C mouse at 2 mg/kg, iv administered as bolus dose measured after 2.2 mins by LC-MS analysis; assay type: ADME, organism-based
[11] = Plasma concentration in Balb-C mouse at 2 mg/kg, iv administered as bolus dose measured after 10 mins by LC-MS analysis; assay type: ADME, organism-based
[12] = Plasma concentration in Balb-C mouse at 2 mg/kg, iv administered as bolus dose measured after 10.1 mins by LC-MS analysis; assay type: ADME, organism-based
[13] = Plasma concentration in Balb-C mouse at 2 mg/kg, iv administered as bolus dose measured after 15 mins by LC-MS analysis; assay type: ADME, organism-based
[14] = Plasma concentration in Balb-C mouse at 2 mg/kg, iv administered as bolus dose measured after 23 mins by LC-MS analysis; assay type: ADME, organism-based
[15] = Plasma concentration in Balb-C mouse at 2 mg/kg, iv administered as bolus dose measured after 37 mins by LC-MS analysis; assay type: ADME, organism-based
[16] = Plasma concentration in Balb-C mouse at 2 mg/kg, iv administered as bolus dose measured after 39 mins by LC-MS analysis; assay type: ADME, organism-based
[17] = Plasma concentration in Balb-C mouse at 2 mg/kg, iv administered as bolus dose measured after 58 mins by LC-MS analysis; assay type: ADME, organism-based
[18] = Plasma concentration in Balb-C mouse at 2 mg/kg, iv administered as bolus dose measured after 63 mins by LC-MS analysis; assay type: ADME, organism-based
[19] = Plasma concentration in Balb-C mouse at 2 mg/kg, iv administered as bolus dose measured after 76 mins by LC-MS analysis; assay type: ADME, organism-based
[20] = Plasma concentration in Balb-C mouse at 10 mg/kg, po measured after 21 mins by LC-MS analysis; assay type: ADME, organism-based
[21] = Plasma concentration in Balb-C mouse at 10 mg/kg, po measured after 30 mins by LC-MS analysis; assay type: ADME, organism-based
[22] = Plasma concentration in Balb-C mouse at 10 mg/kg, po measured after 33 mins by LC-MS analysis; assay type: ADME, organism-based
[23] = Plasma concentration in Balb-C mouse at 10 mg/kg, po measured after 62 mins by LC-MS analysis; assay type: ADME, organism-based
[24] = Cmax in Balb-C mouse at 2 mg/kg, iv administered as bolus dose by LC-MS method; assay type: ADME, organism-based; design: dose 2 mg/kg, route intravenous; settings: in vivo
[25] = Tmax in Balb-C mouse at 2 mg/kg, iv administered as bolus dose by LC-MS method; assay type: ADME, organism-based; settings: in vivo
[26] = Half life in Balb-C mouse at 2 mg/kg, iv administered as bolus dose by LC-MS method; assay type: ADME, organism-based; settings: in vivo
[27] = AUC (0 to infinity) in Balb-C mouse at 2 mg/kg, iv administered as bolus dose by LC-MS method; assay type: ADME, organism-based; design: dose 2 mg/kg, time infinity, route intravenous; settings: in vivo
[28] = MRT (0 to infinity) in Balb-C mouse at 2 mg/kg, iv administered as bolus dose by LC-MS method; assay type: ADME, organism-based; settings: in vivo
[29] = Clearance in Balb-C mouse at 2 mg/kg, iv administered as bolus dose by LC-MS method; assay type: ADME, organism-based; settings: in vivo
[30] = Volume of distribution in Balb-C mouse at 2 mg/kg, iv administered as bolus dose by LC-MS method; assay type: ADME, organism-based; settings: in vivo
[31] = Terminal elimination rate constant in Balb-C mouse at 2 mg/kg, iv administered as bolus dose by LC-MS method; assay type: ADME, organism-based; settings: in vivo, read-out: LZ (converted)
[32] = AUC (0 to t) in Balb-C mouse at 2 mg/kg, iv administered as bolus dose by LC-MS method; assay type: ADME, organism-based; settings: in vivo
Mus musculus [33] = experiment: Toxicity in Balb-C mouse assessed as abnormal behavior at 0.1 to 1 mg/kg, ip measured after 30 mins; assay type: organism-based; settings: in vivo, 0.5 h
Mus musculus [34] = experiment: Toxicity in Balb-C mouse assessed as psychological changes at 0.1 to 1 mg/kg, ip measured after 48 hrs; assay type: organism-based; settings: in vivo
[35] = Solubility of the compound in 8% ethanol/8% polysorbate80/84% saline formulation; assay type: physicochemical; settings: buffer
[36] = Cmax in Balb-C mouse at 1 mg/kg, iv administered as bolus dose by LC-MS method; assay type: ADME, organism-based; design: dose 1 mg/kg, route intravenous; settings: in vivo
[37] = Tmax in Balb-C mouse at 1 mg/kg, iv administered as bolus dose by LC-MS method; assay type: ADME, organism-based; settings: in vivo

N#C/N=C(\NCC12CC3CC(CC(C3)C1)C2)Nc1cccc(F)c1
IC50 (P2X purinoceptor 7 [1]): 0.186 µM

N#C/N=C(/NCc1ccncc1)NCC12CC3CC(CC(C3)C1)C2
IC50 (P2X purinoceptor 7 [1]): 0.447 µM
IC50 (P2X purinoceptor 7 [2]): 0.389 µM
Ratio IC50 [3]: 1.2

COc1cccc(CN/C(=N/C#N)NCC23CC4CC(CC(C4)C2)C3)c1
IC50 (P2X purinoceptor 7 [1]): 0.851 µM

N#C/N=C(\NCC12CC3CC(CC(C3)C1)C2)Nc1ccncc1
IC50 (P2X purinoceptor 7 [1]): 0.417 µM

COc1cccc(N/C(=N/C#N)NCC23CC4CC(CC(C4)C2)C3)c1
IC50 (P2X purinoceptor 7 [1]): 0.058 µM

N#C/N=C(/NCCc1ccccc1)NC12CC3CC(CC(C3)C1)C2
IC50 (P2X purinoceptor 7 [1]): > 10 µM

N#C/N=C(\NCC12CC3CC(CC(C3)C1)C2)Nc1ccccn1
IC50 (P2X purinoceptor 7 [1]): > 10 µM

C[C@H](N/C(=N/C#N)Nc1cccc2ncccc12)c1ccccc1
IC50 (P2X purinoceptor 7 [4]): 0.009 to 0.011 µM

N#C/N=C(/Nc1ccccc1)NC12CC3CC(CC(C3)C1)C2
IC50 (P2X purinoceptor 7 [1]): 2.46 µM

N#C/N=C(\NCCC12CC3CC(CC(C3)C1)C2)Nc1ccccc1
IC50 (P2X purinoceptor 7 [1]): > 10 µM

N#C/N=C(\NCCC12CC3CC(CC(C3)C1)C2)NCc1ccccc1
IC50 (P2X purinoceptor 7 [1]): 3.02 µM

N#C/N=C(/NCc1cccnc1)NCC12CC3CC(CC(C3)C1)C2
Activity (Mus musculus [5]): Non-Toxic
Activity (Mus musculus [6]): Active
IC50 (P2X purinoceptor 7 [1]): 0.069 µM
IC50 (P2X purinoceptor 7 [2]): 0.04 µM
Ratio IC50 [3]: 1.7
concentration at 348 s [7]: 0.523 µg/mL
concentration at 0.1 h [8]: 0.766 µg/mL
concentration at 2.5 min [9]: 1.18 µg/mL
concentration at 132 s [10]: 0.687 µg/mL
concentration at 10 min [11]: 0.365 µg/mL
concentration at 0.168333 h [12]: 0.332 µg/mL
concentration at 0.25 h [13]: 0.461 µg/mL
concentration at 23 min [14]: 0.22 µg/mL
concentration at 37 min [15]: 0.123 µg/mL
concentration at 0.65 h [16]: 0.16 µg/mL
concentration at 58 min [17]: 0.052 µg/mL
concentration at 1.05 h [18]: 0.031 µg/mL
concentration at 76 min [19]: 0.012 µg/mL
concentration at 0.35 h [20]: 0.044 µg/mL
concentration at 0.5 h [21]: 0.039 µg/mL
concentration at 0.55 h [22]: 0.023 µg/mL
concentration at 62 min [23]: 0.0058 µg/mL
Cmax [24]: 3.65 µM
Tmax [25]: 2.5 min
half-life [26]: 13.2 min
AUC(0-inf) [27]: 880 nM·h
MRT inf [28]: 18.6 min
clearance [29]: 7.02 L/h/kg
Vd [30]: 2.2 L/kg
k el [31]: 0.000886 s⁻¹
AUC(0-t) [32]: 870 nM·h
Activity (Mus musculus [33]): Non-Toxic
Activity (Mus musculus [34]): Non-Toxic
solubility [35]: Insoluble
Cmax [36]: 0.912 µM
Tmax [37]: 20 to 30 min

N#C/N=C(\NCC12CC3CC(CC(C3)C1)C2)Nc1ccccc1
IC50 (P2X purinoceptor 7 [1]): 0.1 µM

N#C/N=C(\NCC12CC3CC(CC(C3)C1)C2)Nc1ccccc1F
IC50 (P2X purinoceptor 7 [1]): 0.058 µM

From ChEMBL document CHEMBL4011591, “Discovery and pharmacological evaluation of a novel series of adamantyl cyanoguanidines as P2X7 receptor antagonists” (Eur J Med Chem, 2017)
